From US9718804B2, “GSK-3 inhibitors” (BRISTOL-MYERS SQUIBB COMPANY, priority 2013, dated 2017)
pIC50: −log10 of the molar value. Like-named read-outs stand apart in the source and are kept apart here.

Columns and labels:
[1] = target: GSK3β (Homo sapiens, UniProt P49841); assay: GSK3β kinase assay (Caliper LabChip, fluoresceinated peptide substrate); type: biochemical; settings: for IC50: first value of the cell, 250 pM enzyme, 20 uM ATP, 20 hours at room temperature, read-out: GSK3β/α (nM): GSK3β IC50
Sequence of GSK3β (P49841 whole entry, species assumed): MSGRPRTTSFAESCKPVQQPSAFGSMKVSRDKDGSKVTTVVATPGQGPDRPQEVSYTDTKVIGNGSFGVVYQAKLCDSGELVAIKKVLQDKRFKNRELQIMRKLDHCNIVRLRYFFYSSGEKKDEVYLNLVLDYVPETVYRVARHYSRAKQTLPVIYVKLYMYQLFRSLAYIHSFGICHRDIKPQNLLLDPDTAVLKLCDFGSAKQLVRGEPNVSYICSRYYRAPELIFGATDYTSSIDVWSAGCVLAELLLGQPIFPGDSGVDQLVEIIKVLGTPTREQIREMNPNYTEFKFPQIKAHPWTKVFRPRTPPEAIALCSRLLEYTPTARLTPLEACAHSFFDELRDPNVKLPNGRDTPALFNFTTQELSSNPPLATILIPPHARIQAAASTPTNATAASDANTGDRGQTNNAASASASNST
How it was run: (§1)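 RT, 20 h incubation; EDTA stop (35 mM). Microfluidic electrophoretic separation of product vs. substrate.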

[2] = target: GSK3α (Homo sapiens, UniProt P49840); assay: GSK3α kinase assay (Caliper LabChip, fluoresceinated peptide substrate); type: biochemical
Sequence of GSK3α (P49840 whole entry, species assumed): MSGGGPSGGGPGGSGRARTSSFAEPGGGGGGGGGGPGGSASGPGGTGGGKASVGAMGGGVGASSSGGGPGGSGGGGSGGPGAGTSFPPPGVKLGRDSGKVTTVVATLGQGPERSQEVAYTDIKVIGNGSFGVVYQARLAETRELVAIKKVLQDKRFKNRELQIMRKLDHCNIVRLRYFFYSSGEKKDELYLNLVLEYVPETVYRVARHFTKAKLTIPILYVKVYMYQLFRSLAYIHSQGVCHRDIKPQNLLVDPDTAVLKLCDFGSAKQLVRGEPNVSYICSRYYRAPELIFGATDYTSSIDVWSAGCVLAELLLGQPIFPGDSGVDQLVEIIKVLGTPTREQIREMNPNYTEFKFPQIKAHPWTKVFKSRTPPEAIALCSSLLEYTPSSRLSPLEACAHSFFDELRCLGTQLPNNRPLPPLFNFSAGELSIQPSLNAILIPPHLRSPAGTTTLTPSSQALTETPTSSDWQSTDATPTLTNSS
How it was run: as §1

[3] = test system: pTau; assay: pTau assay (no method described); type: cell-based

Cc1ccnc(Nc2cc(C(=O)Nc3cncc(-c4ccccc4F)c3)ccn2)c1 [Example 132, N-(5-(2-Fluorophenyl)pyridin-3-yl)-2-((4-methylpyridin-2-yl)amino)isonicotinamide]
pIC50 [1]: 8.05 | pIC50 [2]: 8.21 | pIC50 [3]: 5.72

Cc1ccc(Nc2cc(C(=O)Nc3cnccc3-c3ccccc3)ccn2)nc1 [Example 5, 2-((5-Methylpyridin-2-yl)amino)-N-(4-phenylpyridin-3-yl)isonicotinamide]
IC50 [1]: 0.77 nM | pIC50 [2]: 8.32 | pIC50 [3]: 6.74

O=C(Nc1cnc(Cl)cc1C1(C2CC2)OCCO1)c1ccnc(Nc2ccc(C(F)(F)F)cn2)c1 [Example 87, N-(6-Chloro-4-(2-cyclopropyl-1,3-dioxolan-2-yl)pyridin-3-yl)-2-((5-(trifluoromethyl)pyridin-2-yl)amino)isonicotinamide]
IC50 [1]: 0.04 nM | pIC50 [2]: 9.77 | pIC50 [3]: 8.18

O=C(Nc1cncc(-c2cc(F)ccc2F)c1)c1ccnc(Nc2ccc(C(F)(F)F)cn2)c1 [Example 129, N-(5-(2,5-Difluorophenyl)pyridin-3-yl)-2-((5-(trifluoromethyl)pyridin-2-yl)amino)isonicotinamide]
IC50 [1]: 18 nM | pIC50 [2]: 8.01 | pIC50 [3]: 5.68

O=C(Nc1cnccc1Sc1ccccc1)c1ccnc(Nc2ccc(C(F)(F)F)cn2)c1 [Example 172, N-(4-(Phenylthio)pyridin-3-yl)-2-((5-(trifluoromethyl)pyridin-2-yl)amino)isonicotinamide]
IC50 [1]: 5.6 nM | pIC50 [2]: 8.96 | pIC50 [3]: 6.62

O=C(Nc1cncnc1N1CCOCC1)c1ccnc(Nc2ccc(C(F)(F)F)cn2)c1 [Example 195, N-(4-Morpholinopyrimidin-5-yl)-2-((5-(trifluoromethyl)pyridin-2-yl)amino)isonicotinamide]
IC50 [1]: 17 nM | pIC50 [2]: 8.10 | pIC50 [3]: 6.15

CCCS(=O)(=O)c1ccncc1NC(=O)c1ccnc(Nc2ccc(C(F)(F)F)cn2)c1 [Example 182, N-(4-(Propylsulfonyl)pyridin-3-yl)-2-((5-(trifluoromethyl)pyridin-2-yl)amino)isonicotinamide]
IC50 [1]: 5.2 nM | pIC50 [2]: 8.68 | pIC50 [3]: 7.82

O=C(Nc1cnccc1OCCN1CCCC1)c1ccnc(Nc2ccc(C(F)(F)F)cn2)c1 [Example 46, N-(4-(2-(Pyrrolidin-1-yl)ethoxy)pyridin-3-yl)-2-((5-(trifluoromethyl)pyridin-2-yl)amino)isonicotinamide]
IC50 [1]: 150 nM | pIC50 [2]: 7.12 | pIC50 [3]: 5.37

O=C(Nc1cnccc1-c1ccccc1)c1ccnc(Nc2ccccn2)c1 [Example 1, N-(4-Phenylpyridin-3-yl)-2-(pyridin-2-ylamino)isonicotinamide]
IC50 [1]: 3.4 nM | pIC50 [2]: 8.59 | pIC50 [3]: 6.67

O=C(Nc1cnsc1-c1ccccc1)c1ccnc(Nc2ccc(C(F)(F)F)cn2)c1 [Example 204, N-(5-Phenylisothiazol-4-yl)-2-((5-(trifluoromethyl)pyridin-2-yl)amino)isonicotinamide]
IC50 [1]: 3 nM | pIC50 [2]: 8.77 | pIC50 [3]: 6.52

CC(C)Oc1ccncc1NC(=O)c1ccnc(Nc2ccc(C(F)(F)F)cn2)c1 [Example 19, N-(4-(Isopropoxy)pyridin-3-yl)-2-((5-(trifluoromethyl)pyridin-2-yl)amino)isonicotinamide]
IC50 [1]: 1.6 nM | pIC50 [2]: 9.26 | pIC50 [3]: 7.80

O=C(Nc1cnccc1-c1ccccc1)c1ccnc(Nc2cc3ccccc3cn2)c1 [Example 115, 2-(Isoquinolin-3-ylamino)-N-(4-phenylpyridin-3-yl)isonicotinamide]
IC50 [1]: 0.97 nM | pIC50 [2]: 9.19 | pIC50 [3]: 6.53

Cc1cccc(Nc2cc(C(=O)Nc3cncc(-c4ccccc4F)c3)ccn2)n1 [Example 137, N-(5-(2-Fluorophenyl)pyridin-3-yl)-2-((6-methylpyridin-2-yl)amino)isonicotinamide]
IC50 [1]: 7.1 nM | pIC50 [2]: 8.25 | pIC50 [3]: 5.57

O=C(Nc1cnccc1SCC(F)(F)F)c1ccnc(Nc2ccc(C(F)(F)F)cn2)c1 [Example 171, N-(4-((2,2,2-Trifluoroethyl)thio)pyridin-3-yl)-2-((5-(trifluoromethyl)pyridin-2-yl)amino)isonicotinamide]
IC50 [1]: 1.2 nM | pIC50 [2]: 9.21 | pIC50 [3]: 7.33

CC(=O)c1c(NC(=O)c2ccnc(Nc3ccc(C(F)(F)F)cn3)c2)cnn1C [Example 206, N-(5-Acetyl-1-methyl-1H-pyrazol-4-yl)-2-((5-(trifluoromethyl)pyridin-2-yl)amino)isonicotinamide]
IC50 [1]: 3.1 nM | pIC50 [2]: 8.57 | pIC50 [3]: 6.40

C[C@H]1CO[C@](c2cc(Cl)ncc2NC(=O)c2ccnc(Nc3ccc(C(F)(F)F)cn3)c2)(C2CC2)O1 [Example 97, N-(6-Chloro-4-((2R,4S)-2-cyclopropyl-4-methyl-1,3-dioxolan-2-yl)pyridin-3-yl)-2-((5-(trifluoromethyl)pyridin-2-yl)amino)isonicotinamide]
IC50 [1]: 1.5 nM | pIC50 [2]: 9.25 | pIC50 [3]: 7.08

Cc1ccc(Nc2cc(C(=O)Nc3cncc(-c4ccccc4F)c3)ccn2)nc1C [Example 143, 2-((5,6-Dimethylpyridin-2-yl)amino)-N-(5-(2-fluorophenyl)pyridin-3-yl)isonicotinamide]
pIC50 [1]: 8.06 | pIC50 [2]: 8.22 | pIC50 [3]: 5.55

CCOc1ccncc1NC(=O)c1ccnc(Nc2ccccn2)c1 [Example 11, N-(4-Ethoxypyridin-3-yl)-2-(pyridin-2-ylamino)isonicotinamide]
IC50 [1]: 8.9 nM | pIC50 [2]: 8.55 | pIC50 [3]: 6.53

CCCSc1ccncc1NC(=O)c1ccnc(Nc2ccc(C(F)(F)F)cn2)c1 [Example 170, N-(4-(Propylthio)pyridin-3-yl)-2-((5-(trifluoromethyl)pyridin-2-yl)amino)isonicotinamide]
IC50 [1]: 0.75 nM | pIC50 [2]: 9.68 | pIC50 [3]: 7.31

N#Cc1ccc(Nc2cc(C(=O)Nc3cncc4ccccc34)ccn2)nc1 [Example 65, 2-((5-Cyanopyridin-2-yl)amino)-N-(isoquinolin-4-yl)isonicotinamide]
IC50 [1]: 8.5 nM | pIC50 [2]: 8.49 | pIC50 [3]: 6.38

CC(C)(C#N)c1ccc(Nc2cc(C(=O)Nc3cnccc3-c3ccccc3)ccn2)nc1 [Example 61, 2-((5-(2-Cyanopropan-2-yl)pyridin-2-yl)amino)-N-(4-phenylpyridin-3-yl)isonicotinamide]
IC50 [1]: 1.5 nM | pIC50 [2]: 9.27 | pIC50 [3]: 6.82

O=C(Nc1cnccc1C1OCCO1)c1ccnc(Nc2ccc(C(F)(F)F)cn2)c1 [Example 40, N-(4-(1,3-Dioxolan-2-yl)pyridin-3-yl)-2-((5-(trifluoromethyl)pyridin-2-yl)amino)isonicotinamide]
IC50 [1]: 23 nM | pIC50 [2]: 7.34 | pIC50 [3]: 5.48

O=C(Nc1cncc(-c2ccccc2F)c1)c1ccnc(Nc2ccc3ccccc3n2)c1 [Example 142, N-(5-(2-Fluorophenyl)pyridin-3-yl)-2-(quinolin-2-ylamino)isonicotinamide]
IC50 [1]: 23 nM | pIC50 [2]: 8.25 | pIC50 [3]: 5.68

O=C(Nc1cnc(Cl)cc1C1(c2ccccc2)OCCO1)c1ccnc(Nc2ccc(C(F)(F)F)cn2)c1 [Example 95, N-(6-Chloro-4-(2-phenyl-1,3-dioxolan-2-yl)pyridin-3-yl)-2-((5-(trifluoromethyl)pyridin-2-yl)amino)isonicotinamide]
IC50 [1]: 10 nM | pIC50 [2]: 8.26 | pIC50 [3]: 6.04

O=C(Nc1cn[nH]c1-c1ccccc1)c1ccnc(Nc2ccc(C(F)(F)F)cn2)c1 [Example 205, N-(5-Phenyl-1H-pyrazol-4-yl)-2-((5-(trifluoromethyl)pyridin-2-yl)amino)isonicotinamide]
IC50 [1]: 28 nM | pIC50 [2]: 7.70 | pIC50 [3]: 5.00

CC(C)C(O)c1cc(Cl)ncc1NC(=O)c1ccnc(Nc2ccc(C(F)(F)F)cn2)c1 (stereo not drawn) [Example 103, N-(6-Chloro-4-(1-hydroxy-2-methylpropyl)pyridin-3-yl)-2-((5-(trifluoromethyl)pyridin-2-yl)amino)isonicotinamide]
IC50 [1]: 6.7 nM | pIC50 [2]: 8.41 | pIC50 [3]: 6.27

N#Cc1cccc(Nc2cc(C(=O)Nc3cncc(-c4ccc(C#N)c(F)c4)c3)ccn2)n1 [Example 165, N-(5-(4-Cyano-3-fluorophenyl)pyridin-3-yl)-2-((6-cyanopyridin-2-yl)amino)isonicotinamide]
IC50 [1]: 1.2 nM | pIC50 [2]: 9.40 | pIC50 [3]: 7.08

CC(C)(C#N)c1ccc(Nc2cc(C(=O)Nc3cncc(-c4ccccc4F)c3)ccn2)nc1 [Example 164, 2-((5-(2-Cyanopropan-2-yl)pyridin-2-yl)amino)-N-(5-(2-fluorophenyl)pyridin-3-yl)isonicotinamide]
IC50 [1]: 4.9 nM | pIC50 [2]: 8.62 | pIC50 [3]: 5.51

O=C(Nc1cnc(F)cc1N1CCC(F)(F)CC1)c1ccnc(Nc2ccc(C(F)(F)F)cn2)c1 [Example 71, N-(6-Fluoro-4-(4,4-difluoropiperidin-1-yl)pyridin-3-yl)-2-((5-(trifluoromethyl)pyridin-2-yl)amino)isonicotinamide]
IC50 [1]: 1.3 nM | pIC50 [2]: 9.44 | pIC50 [3]: 7.22

CC1(c2cc(OCCO)ncc2NC(=O)c2ccnc(Nc3ccc(C(F)(F)F)cn3)c2)OCCO1 [Example 84, N-(6-(2-Hydroxyethoxy)-4-(2-methyl-1,3-dioxolan-2-yl)pyridin-3-yl)-2-((5-(trifluoromethyl)pyridin-2-yl)amino)isonicotinamide]
IC50 [1]: 9.2 nM | pIC50 [2]: 8.30 | pIC50 [3]: 6.46

COc1cc(C2(C)OCCO2)c(NC(=O)c2ccnc(Nc3ccc(C(F)(F)F)cn3)c2)cn1 [Example 91, N-(6-Methoxy-4-(2-methyl-1,3-dioxolan-2-yl)pyridin-3-yl)-2-((5-(trifluoromethyl)pyridin-2-yl)amino)isonicotinamide]
IC50 [1]: 3.9 nM | pIC50 [2]: 7.70 | pIC50 [3]: 5.92
